Values of other authors, collected in article PMC2967214 (Journal of the American Chemical Society, 2010).

Assays:
[1] = cited from earlier work
[2] = 25°C, 20 MHz; cited from earlier work

Compound	thermodynamic and kinetic stability of Gd3+ complex [1]	r1 relaxivity [2]
O=C(O)CN1CCN(CC(=O)O)CCN(CC(=O)O)CCN(CC(=O)O)CC1 [DOTA]	high thermodynamic and kinetic stability	–
Gadomer 17	–	16.5 mM⁻¹ s⁻¹
